In ChEMBL document CHEMBL3808277, “Identification of a Potent and Selective GPR4 Antagonist as a Drug Lead for the Treatment of Myocardial Infarction” (ACS Med Chem Lett, 2016):
Activity calls are given as the source filed them. The calls are words filed in the database; no cut-off is given here.

Assays:
[1] = target: T1, G-prodeshotein coupled receptor 4 (Homo sapiens, UniProt P46093); test: Antagonist activity at N-terminal HA-tagged GPR4 (unknown origin) expressed in HEK293 cells assessed as pH dependent cAMP response element-driven transcriptional activity ratio at 10 uM at pH 7.2 incubated for 6 hrs by dual luciferase reporter gene assay relative to untreated control; type: functional, cell-based
Target sequence in this assay (P46093 whole entry, looked up): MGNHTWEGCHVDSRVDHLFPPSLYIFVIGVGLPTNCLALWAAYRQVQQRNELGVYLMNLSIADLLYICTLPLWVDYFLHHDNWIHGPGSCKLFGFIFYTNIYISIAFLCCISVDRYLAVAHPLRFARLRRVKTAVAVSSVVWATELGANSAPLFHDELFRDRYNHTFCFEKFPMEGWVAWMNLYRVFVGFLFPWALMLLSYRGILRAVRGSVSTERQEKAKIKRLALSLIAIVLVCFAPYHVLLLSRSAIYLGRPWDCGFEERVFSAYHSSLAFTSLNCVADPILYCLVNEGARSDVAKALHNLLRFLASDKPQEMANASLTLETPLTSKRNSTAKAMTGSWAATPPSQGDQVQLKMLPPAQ

[2] = target: T1, G-prodeshotein coupled receptor 4; test: Antagonist activity at N-terminal HA-tagged GPR4 (unknown origin) expressed in HEK293 cells assessed as inhibition of pH dependent cAMP response element-driven transcriptional activity at pH 7.2 incubated for 6 hrs by dual luciferase reporter gene assay; type: functional, cell-based
Target sequence in this assay (P46093 whole entry): as the sequence (P46093 whole entry, looked up) above

[3] = target: T2, G-protein coupled receptor 65 (Homo sapiens, UniProt Q8IYL9); test: Antagonist activity at N-terminal HA-tagged TDAG8 receptor (unknown origin) expressed in HEK293 cells assessed as inhibition of pH dependent cAMP response element-driven transcriptional activity at >1 uM at pH 7.2 incubated for 6 hrs by dual luciferase reporter gene assay; type: functional, cell-based
T2 sequence (Q8IYL9 whole entry): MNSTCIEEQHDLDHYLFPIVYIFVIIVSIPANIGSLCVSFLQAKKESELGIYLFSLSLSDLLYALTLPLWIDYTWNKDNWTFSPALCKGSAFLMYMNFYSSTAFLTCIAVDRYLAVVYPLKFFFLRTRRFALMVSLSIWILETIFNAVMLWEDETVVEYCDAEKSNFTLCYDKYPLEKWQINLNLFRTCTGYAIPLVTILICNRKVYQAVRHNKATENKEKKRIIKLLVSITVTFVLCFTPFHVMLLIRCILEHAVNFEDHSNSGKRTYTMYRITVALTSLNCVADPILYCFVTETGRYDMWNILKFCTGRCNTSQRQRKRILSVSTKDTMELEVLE

[4] = target: T3, G-protein coupled receptor 68 (Homo sapiens, UniProt Q15743); test: Antagonist activity at N-terminal HA-tagged OGR1 (unknown origin) expressed in HEK293 cells assessed as inhibition of pH dependent nuclear factor of activated T-cell activity at >1 uM at pH 7.2 incubated for 6 hrs by dual luciferase reporter gene assay; type: cell-based
T3 sequence (Q15743 whole entry): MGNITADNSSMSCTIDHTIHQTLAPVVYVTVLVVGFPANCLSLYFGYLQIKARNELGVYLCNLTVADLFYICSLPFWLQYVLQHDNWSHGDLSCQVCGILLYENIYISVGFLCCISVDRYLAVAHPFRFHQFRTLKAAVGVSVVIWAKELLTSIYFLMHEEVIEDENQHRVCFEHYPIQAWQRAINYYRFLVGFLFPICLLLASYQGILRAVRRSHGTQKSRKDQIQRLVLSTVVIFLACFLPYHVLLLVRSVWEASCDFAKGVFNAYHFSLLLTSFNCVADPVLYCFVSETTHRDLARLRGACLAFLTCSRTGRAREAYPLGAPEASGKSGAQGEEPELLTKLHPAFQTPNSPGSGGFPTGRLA

Mus musculus [5] = test: (§1) Increase in survival of C57BL/6J mouse permanent left anterior descending coronary artery ligation model of myocardial infarction assessed as survival rate at 20 mg/kg/day, ip bid dosed from 1 day before to 7 day after myocardial infarction without operation day measured up to 28 days (reference value: 14.3 %); type: functional
[6] = target: T3, G-protein coupled receptor 68; test: Antagonist activity at N-terminal HA-tagged OGR1 (unknown origin) expressed in HEK293 cells assessed as inhibition of pH dependent nuclear factor of activated T-cell activity at pH 7.2 incubated for 6 hrs by dual luciferase reporter gene assay; type: cell-based
Mus musculus [7] = test: as §1, with “6.7” for “20”; type: functional
[8] = target: T2, G-protein coupled receptor 65; test: Antagonist activity at N-terminal HA-tagged TDAG8 receptor (unknown origin) expressed in HEK293 cells assessed as inhibition of pH dependent cAMP response element-driven transcriptional activity at pH 7.2 incubated for 6 hrs by dual luciferase reporter gene assay; type: functional, cell-based

| SMILES | Ratio [1] | IC50 [2] | also measured |
| --- | --- | --- | --- |
| Cc1nccn1Cc1ccc2c(c1)CCc1ccccc1N2 | 1.24 |  |  |
| CCc1nc2ccccc2n1Cc1ccc2c(c1)CCc1ccccc1N2 | 0.44 | > 10000 nM |  |
| CCc1nc2c(C)cc(C)nc2n1Cc1ccc2c(c1)CCc1cc(CN3CCN(C)CC3)ccc1N2 | 0.42 | 130 nM | inhibition [3]: Active; inhibition [4]: Active |
| c1ccc2c(c1)CCc1cc(Cn3ccc4ccccc43)ccc1N2 | 0.44 |  |  |
| c1ccc2c(c1)CCc1cc(Cn3cnc4ccccc43)ccc1N2 | 0.52 | > 10000 nM |  |
| CCc1nc2c(C)cc(C)nc2n1Cc1ccc2c(c1)CCc1cc(CN3CCCCC3)ccc1N2 | 0.39 | 67 nM | survival at 20 mg/kg/day (Mus musculus [5]): 62.5%; IC50 [6]: > 10000 nM; survival at 6.7 mg/kg/day (Mus musculus [7]): 100%; IC50 [8]: > 10000 nM |
| c1ccc2c(c1)CCc1cc(Cn3ccnc3)ccc1N2 | 1.11 |  |  |
| Cc1nc2ccccc2n1Cc1ccc2c(c1)CCc1ccccc1N2 | 0.57 |  |  |
| c1ccc2c(c1)CCc1cc(Cn3c4ccccc4c4ccccc43)ccc1N2 | 1.03 |  |  |
| CCc1nccn1Cc1ccc2c(c1)CCc1ccccc1N2 | 1.22 |  |  |

Further lines, with some results ahead:

| Ratio [1] | IC50 [2] | SMILES | also measured |
| --- | --- | --- | --- |
| 0.4 |  | CCc1nc2c(C)cc(C)nc2n1Cc1ccc2c(c1)CCc1cc(CN3CCCC3)ccc1N2 |  |
| 0.54 | > 10000 nM | CCc1nc2c(C)cc(C)nc2n1Cc1ccc(Nc2ccccc2)cc1 |  |
| 0.41 |  | CCc1nc2c(C)cc(C)nc2n1Cc1ccc2c(c1)CCc1cc(CN3CCOCC3)ccc1N2 |  |
| 0.52 |  | CCc1nc2c(C)cc(C)nc2n1Cc1ccc2ccccc2c1 |  |
| 0.36 |  | CCc1nc2c(C)cc(C)nc2n1Cc1ccc2c(c1)C=Cc1ccccc1N2 |  |
| 0.72 |  | CCc1nc2c(C)cc(C)nc2n1Cc1ccccc1 |  |
| 0.38 | 910 nM | CCc1nc2c(C)cc(C)nc2n1Cc1ccc2c(c1)Sc1ccccc1N2 |  |
| 0.22 | 900 nM | CCc1nc2c(C)cc(C)nc2n1Cc1ccc2c(c1)CCc1ccccc1N2 |  |
